Measurements from US6613718B2, “Aryl ether derivatives and processes for their preparation and herbicidal and desiccant compositions containing them” (Ishihara Sangyo Kaisha, Ltd., priority 2001, dated 2003).

What was measured:
Assay type in all cases: in vivo
Settings in all cases: 14 days after application
[1] = tested on: field corn (Zea mays L., var. Dekalb 535, CORN); test: Post-emerge greenhouse screening, crop safety / corn selectivity (phytotoxicity rating)
From the text: (§1) A standard greenhouse herbicide activity screening system was used to evaluate the herbicidal efficacy and crop safety of these test compounds. Seven broadleaf weed species including redroot pigweed (Amaranthus retroflexus, AMARE), velvetleaf (Abutilon theophrasti, ABUTH), sicklepod (Cassia obtusifolia, CASOB), ivyleaf morningglory (Ipomoea hederacea, IPOHE), lambsquarters (Chenopodium album, CHEAL), common ragweed (Ambrosia artemisiifolia L., AMBEL), and cocklebur (Xanthium strumarium, XANST) were used as test species. Four grass weed species including green foxtail (Setaria viridis, SETVI), barnyardgrass (Echinochloa crus-galli, ECHCG), johnsongrass (Sorghum halepense, SORHA), and large crabgrass (Digitaria sanguinalis, DIGSA) were also used. In addition, three crop species, field corn (Zea mays L., var. Dekalb 535, CORN), soybean (Glycine max L., var. Pella 86, SOY), and upland rice (Oryza sp., var.Tebonnet, RICE) were included.
(§2) All plants were grown in 10 cm square plastic pots which were filled with a sandy loam soil mix. For pre-emerge tests, seeds were planted one day prior to application of the test compounds. For post-emerge tests, seeds were planted 8-21 days prior to the test to allow emergence and good foliage development prior to application of the test substances. At the time of the post-emerge application, plants of all species were usually at the 2-3 leaf stage of development.
(§3) All test compounds were dissolved in acetone and applied to the test units in a volume of 187 1/ha. Test materials were applied at rates ranging from 15 g ai/ha to 1000 g ai/ha using a track sprayer equipped with a TJ8001E even flow flat fan spray nozzle. Plants were arranged on a shelf so that the top of the canopy (post-emerge) or top of the soil surface (pre-emerge) was 40-45 cm below the nozzle. Pressurized air was used to force the test solution through the nozzle as it was mechanically advanced (via electrically driven chain drive) over the top of all test plants/pots. This application simulates a typical commercial field herbicide application.
(§4) In the post-emerge test, a commercial non-ionic surfactant was also included (0.25% v/v) to enhance wetting of the leaf surfaces of target plants. Immediately after application, test units of the pre-emerge applications were watered at the soil surface to incorporate the test materials. Subsequently, these test units were bottom-watered. Post-emerge test units were always bottom-watered.
(§5) At 14 days after application of the test materials, phytotoxicity ratings were recorded. A rating scale of 0-100 was used as previously described in Research Methods in Weed Science, 2nd edition, B. Truelove, Ed., Southern Weed Science Society, Auburn University, Auburn, Ala., 1977. Briefly, “0” corresponds to no damage and “100” corresponds to complete death of all plants in the test unit. This scale was used both to determine efficacy against weed species and damage to crop species. Herbicide activity data for various compounds of this invention, which are shown by compound No. in Tables I-VI, are shown in Tables VIII-IX.

[2] = tested on: soybean (Glycine max L., var. Pella 86, SOY); test: Post-emerge greenhouse screening, crop safety (phytotoxicity rating)
From the text: as §1, §2, §3, §4, §5

[3] = tested on: upland rice (Oryza sp., var.Tebonnet, RICE); test: as above
From the text: as §1, §2, §3, §4, §5

[4] = tested on: field corn (Zea mays L., var. Dekalb 535, CORN); test: Pre-emerge greenhouse screening, crop safety (phytotoxicity rating)
From the text: as §1, §2, §3, §4, §5

[5] = tested on: soybean (Glycine max L., var. Pella 86, SOY); test: as above
From the text: as §1, §2, §3, §4, §5

[6] = tested on: upland rice (Oryza sp., var.Tebonnet, RICE); test: as above
From the text: as §1, §2, §3, §4, §5

[7] = tested on: lambsquarters (Chenopodium album, CHEAL); test: Pre-emerge greenhouse herbicide activity screening, phytotoxicity rating
From the text: as §1, §2, §3, §4, §5

[8] = tested on: green foxtail (Setaria viridis, SETVI); test: as above
From the text: as §1, §2, §3, §4, §5

[9] = tested on: velvetleaf (Abutilon theophrasti, ABUTH); test: as above
From the text: as §1, §2, §3, §4, §5

[10] = tested on: ivyleaf morningglory (Ipomoea hederacea, IPOHE); test: as above
From the text: as §1, §2, §3, §4, §5

[11] = tested on: barnyardgrass (Echinochloa crus-galli, ECHCG); test: as above
From the text: as §1, §2, §3, §4, §5

[12] = tested on: johnsongrass (Sorghum halepense, SORHA); test: as above
From the text: as §1, §2, §3, §4, §5

[13] = tested on: large crabgrass (Digitaria sanguinalis, DIGSA); test: as above
From the text: as §1, §2, §3, §4, §5

[14] = tested on: sicklepod (Cassia obtusifolia, CASOB); test: as above
From the text: as §1, §2, §3, §4, §5

[15] = tested on: redroot pigweed (Amaranthus retroflexus, AMARE); test: as above
From the text: as §1, §2, §3, §4, §5

[16] = tested on: common ragweed (Ambrosia artemisiifolia L., AMBEL); test: as above
From the text: as §1, §2, §3, §4, §5

[17] = tested on: lambsquarters (Chenopodium album, CHEAL); test: Post-emerge greenhouse herbicide activity screening, phytotoxicity rating
From the text: as §1, §2, §3, §4, §5

[18] = tested on: green foxtail (Setaria viridis, SETVI); test: as above
From the text: as §1, §2, §3, §4, §5

[19] = tested on: velvetleaf (Abutilon theophrasti, ABUTH); test: as above
From the text: as §1, §2, §3, §4, §5

[20] = tested on: ivyleaf morningglory (Ipomoea hederacea, IPOHE); test: as above
From the text: as §1, §2, §3, §4, §5

[21] = tested on: barnyardgrass (Echinochloa crus-galli, ECHCG); test: as above
From the text: as §1, §2, §3, §4, §5

[22] = tested on: johnsongrass (Sorghum halepense, SORHA); test: as above
From the text: as §1, §2, §3, §4, §5

[23] = tested on: large crabgrass (Digitaria sanguinalis, DIGSA); test: as above
From the text: as §1, §2, §3, §4, §5

[24] = tested on: sicklepod (Cassia obtusifolia, CASOB); test: as above
From the text: as §1, §2, §3, §4, §5

[25] = tested on: redroot pigweed (Amaranthus retroflexus, AMARE); test: as above
From the text: as §1, §2, §3, §4, §5

[26] = tested on: common ragweed (Ambrosia artemisiifolia L., AMBEL); test: as above
From the text: as §1, §2, §3, §4, §5

Structure (SMILES): Cn1c(C(F)(F)F)cc(=O)n(-c2cc(Oc3ccccc3)c(Cl)cc2F)c1=S [Compound 1-47]
- CORN crop damage, phytotoxicity rating (0-100 scale) ([1]; 125 g ai/ha): 0
- CORN crop damage, phytotoxicity rating (0-100 scale) ([1]; 250 g ai/ha): 0
- SOY crop damage, phytotoxicity rating (0-100 scale) ([2]; 125 g ai/ha): 15
- SOY crop damage, phytotoxicity rating (0-100 scale) ([2]; 250 g ai/ha): 40
- RICE crop damage, phytotoxicity rating (0-100 scale) ([3]; 125 g ai/ha): 0
- RICE crop damage, phytotoxicity rating (0-100 scale) ([3]; 250 g ai/ha): 0
- CORN crop damage, phytotoxicity rating (0-100 scale) ([4]; 125 g ai/ha): 5
- CORN crop damage, phytotoxicity rating (0-100 scale) ([4]; 250 g ai/ha): 8
- SOY crop damage, phytotoxicity rating (0-100 scale) ([5]; 125 g ai/ha): 50
- SOY crop damage, phytotoxicity rating (0-100 scale) ([5]; 250 g ai/ha): 65
- RICE crop damage, phytotoxicity rating (0-100 scale) ([6]; 125 g ai/ha): 15
- RICE crop damage, phytotoxicity rating (0-100 scale) ([6]; 250 g ai/ha): 25
- CHEAL phytotoxicity rating (0-100 scale) ([7]; 125 g ai/ha): 100
- CHEAL phytotoxicity rating (0-100 scale) ([7]; 250 g ai/ha): 100
- SETVI phytotoxicity rating (0-100 scale) ([8]; 125 g ai/ha): 100
- SETVI phytotoxicity rating (0-100 scale) ([8]; 250 g ai/ha): 100
- ABUTH phytotoxicity rating (0-100 scale) ([9]; 125 g ai/ha): 100
- ABUTH phytotoxicity rating (0-100 scale) ([9]; 250 g ai/ha): 100
- IPOHE phytotoxicity rating (0-100 scale) ([10]; 125 g ai/ha): 95
- IPOHE phytotoxicity rating (0-100 scale) ([10]; 250 g ai/ha): 98
- ECHCG phytotoxicity rating (0-100 scale) ([11]; 125 g ai/ha): 80
- ECHCG phytotoxicity rating (0-100 scale) ([11]; 250 g ai/ha): 85
- SORHA phytotoxicity rating (0-100 scale) ([12]; 125 g ai/ha): 50
- SORHA phytotoxicity rating (0-100 scale) ([12]; 250 g ai/ha): 55
- DIGSA phytotoxicity rating (0-100 scale) ([13]; 125 g ai/ha): 95
- DIGSA phytotoxicity rating (0-100 scale) ([13]; 250 g ai/ha): 100
- CASOB phytotoxicity rating (0-100 scale) ([14]; 125 g ai/ha): 90
- CASOB phytotoxicity rating (0-100 scale) ([14]; 250 g ai/ha): 99
- AMARE phytotoxicity rating (0-100 scale) ([15]; 125 g ai/ha): 100
- AMARE phytotoxicity rating (0-100 scale) ([15]; 250 g ai/ha): 100
- AMBEL phytotoxicity rating (0-100 scale) ([16]; 125 g ai/ha): 95
- AMBEL phytotoxicity rating (0-100 scale) ([16]; 250 g ai/ha): 99
- CHEAL phytotoxicity rating (0-100 scale) ([17]; 125 g ai/ha): 99
- CHEAL phytotoxicity rating (0-100 scale) ([17]; 250 g ai/ha): 100
- SETVI phytotoxicity rating (0-100 scale) ([18]; 125 g ai/ha): 50
- SETVI phytotoxicity rating (0-100 scale) ([18]; 250 g ai/ha): 75
- ABUTH phytotoxicity rating (0-100 scale) ([19]; 125 g ai/ha): 100
- ABUTH phytotoxicity rating (0-100 scale) ([19]; 250 g ai/ha): 100
- IPOHE phytotoxicity rating (0-100 scale) ([20]; 125 g ai/ha): 75
- IPOHE phytotoxicity rating (0-100 scale) ([20]; 250 g ai/ha): 85
- ECHCG phytotoxicity rating (0-100 scale) ([21]; 125 g ai/ha): 60
- ECHCG phytotoxicity rating (0-100 scale) ([21]; 250 g ai/ha): 65
- SORHA phytotoxicity rating (0-100 scale) ([22]; 125 g ai/ha): 0
- SORHA phytotoxicity rating (0-100 scale) ([22]; 250 g ai/ha): 0
- DIGSA phytotoxicity rating (0-100 scale) ([23]; 125 g ai/ha): 10
- DIGSA phytotoxicity rating (0-100 scale) ([23]; 250 g ai/ha): 35
- CASOB phytotoxicity rating (0-100 scale) ([24]; 125 g ai/ha): 65
- CASOB phytotoxicity rating (0-100 scale) ([24]; 250 g ai/ha): 65
- AMARE phytotoxicity rating (0-100 scale) ([25]; 125 g ai/ha): 100
- AMARE phytotoxicity rating (0-100 scale) ([25]; 250 g ai/ha): 100
- AMBEL phytotoxicity rating (0-100 scale) ([26]; 125 g ai/ha): 70
- AMBEL phytotoxicity rating (0-100 scale) ([26]; 250 g ai/ha): 75
